Test results taken from US20260199339A1, “COMBINATION THERAPY FOR TREATING ABNORMAL CELL GROWTH” (Verastem, Inc., priority 2020, published 2026).
“Also recorded” adds a separate entry of the source.

Legend:
[1] = test system: A549; assay: Cell viability after VS-6766 treatment, A549; assay type: cell-based, human; details: A549, 48 hours
[2] = test system: TOV21G; assay: Cell viability after VS-6766 treatment, TOV21G; assay type: cell-based, human; details: 48 hours
[3] = test system: WM115; assay: Cell viability after VS-6766 treatment, WM115; assay type: cell-based, human; details: WM115, 48 hours
[4] = test system: SKMEL5; assay: Cell viability after VS-6766 treatment, SKMEL5; assay type: cell-based, human; details: SKMEL5, 48 hours
[5] = test system: IGR-1; assay: Cell viability after VS-6766 treatment, IGR-1; assay type: cell-based, human; details: IGR-1, 48 hours
[6] = test system: KRAS/BRAF mutant human cancer cell lines; assay: RNA extraction and qRT-PCR of MHC-I antigen presentation genes; assay type: cell-based; details: FIG. 1
Procedure: RNA Extraction and qRT-PCR
Cells were seeded into 6-cm dishes and after an incubate overnight (17~22 hrs) cells were treated with VS-6766 for 48 hours at a concentration that gave an 80% cell viability (1 μM for A549, TOV21G and WM115, and 300 nM for SKMEL5 and IGR-1). RNA was extracted using RNeasy® Plus Mini kit (Qiagen) and converted to cDNA using the cDNA by High-Capacity cDNA Reverse Transcription Kit (Applied Biosystems). TaqMan qPCR was run using HLA-A, B2M, TAP1 and TAP-2 probes from Applied Biosystems. VIC-GAPDH probe as the house keeping gene. Each PCR reaction will be run in triplicate wells. Expression levels were computed as the difference (ΔCT) between the target gene CT and GAPDH CT.

[7] = test system: CT26 KRAS (G12D)-mutant colorectal cancer mouse models; assay: Syngeneic CT26 tumor mouse study, VS-6766 and/or anti-PD-1; assay type: in vivo; details: VS-6766 0.5 mg/kg PO QD x 28 days; anti-PD-1 60 μg/mouse (3 mg/kg) IP BIW x 4 doses; Balb/c mice; FIG. 2A, 2B
Procedure: CT26 tumor cells were obtained from ATCC and Balb/c mice were obtained from Shanghai Lingchang Biotechnology. Tumor challenge was initiated by subcutaneous inoculation of 3×10^5 CT26 tumor cell suspensions into the right flank of recipient mice. Tumor sizes (mm3) were measured and calculated as described above. Once tumors reached an average volume of 50-80 mm3, mice were sorted into 4 groups (n=10): vehicle (5% DMSO, 10% HPCD in sterile water, oral dosing (PO), once per day (QD), 28 days)+isotype control ([…] intraperitoneally (IP) biweekly, 4 doses; rat IgG2a clone 2A3, BioXcell), VS-6766 (0.5 mg/kg PO QD, 28 days)+isotype control, anti-PD-1 (60 μg/mouse IP biweekly, 4 doses; clone RMP1-14, BioXCell), and VS-6766+anti-PD-1. Tumors and body weights were measured 3 times per week for the duration of the study. At the time of routine monitoring, the animals were checked for any effects of tumor growth and treatments on normal behavior such as mobility, food and water consumption (by looking only), and body weight gain/loss, eye/hair matting and any other abnormal effect. For Kaplan-Meier analysis, an event was defined by death or tumor growth beyond 2,000 mm^3.

CNS(=O)(=O)Nc1nccc(Cc2c(C)c3ccc(Oc4ncccn4)cc3oc2=O)c1F [VS-6766]
concentration that gave an 80% cell viability [1]: 1 µM
concentration that gave an 80% cell viability [2]: 1 µM
concentration that gave an 80% cell viability [3]: 1 µM
concentration that gave an 80% cell viability [4]: 300 nM
concentration that gave an 80% cell viability [5]: 300 nM
HLA-A expression ([6]; 48 h, qRT-PCR): increased
TAP1 expression ([6]; 48 h, qRT-PCR): increased
TAP2 expression ([6]; 48 h, qRT-PCR): increased
β2M expression ([6]; 48 h, qRT-PCR): increased
tumor antigen presentation (markers associated with antigen presentation, MHC-I expression) ([6]; multiple KRAS/BRAF mutant human cancer cell lines): increase tumor antigen presentation; also recorded: upregulates
tumor growth / antitumor efficacy (tumor volume) [7]: delay tumor growth
